Legend:
B-Raf = B-Raf (Homo sapiens, UniProt P15056); assay: Fluorescence anisotropy kinase binding assay (Assay 1)
Excerpt: Fluorescence Anisotropy Kinase Binding Assay
The concentration of kinase enzyme should preferably be ≧1×Kf. The concentration of fluorescent ligand required will depend on the instrumentation used, and the fluorescent and physicochemical properties. The concentration used must be lower than the concentration of kinase enzyme, and preferably less than half the kinase enzyme concentration. A typical protocol is:
All compounds are serially diluted in DMSO, then by a one step dilution into buffer of comparison, 50 mM HEPES, […] pH7.5, 1 mM CHAPS, 10 mM MgCL2, for the assay.
B-Raf Enzyme concentration: 1 nM
Fluorescent ligand concentration: 0.5 nM
Test compound concentration: 0.5 nM-100 uM
Components incubated in 10 ul final volume in LJL HE 384 type B black microtitre plate until equilibrium reached (Over 3 h, up to 30 h)
Fluorescence anisotropy read in an LJL Acquest fluorescence reader.
• Ki=dissociation constant for inhibitor binding • Kf=dissociation constant for fluorescent ligand binding
The fluorescent ligand is the following compound:
which is derived from 5-[2-(4-aminomethylphenyl)-5-pyridin-4-yl-1H-imidazol-4-yl]-2-chlorophenol and rhodamine green.

[1] = test system: Normal human foreskin fibroblasts (HFF); assay: Methylene blue growth inhibition assay (Assay 2), HFF; format: cell-based; conditions: Fibroblast, 72 h, B-Raf wt, Ras wt, Assay 2, 3 days
Experimental: (§1) Methylene Blue Growth Inhibition Assay (Assay 2)
(§2) Normal human foreskin fibroblasts (HFF), human melanoma (A375P, SKMEL2, SKMEL3) colon carcinoma (Colo 205) were cultured in the following growth media: A375P, Colo 205, Roswell Park Memorial Institute (RPMI) 1640 (Life Technologies 22400-089) containing 10% fetal bovine serum (FBS); HFF, Dulbecco's modified Eagle Medium (DMEM) (Life Technologies 12320-032) containing 10% FBS; SKMEL2 and SKMEL3, Minimum Essential Medium (MEM, Life Technologies 11095-080) containing 1× non-essential amino acids (Life Technologies 11140-050) and 10% FBS. Cells were harvested using 0.25% trypsin/1 mM, EDTA, counted using a haemocytometer, and plated in […] of the appropriate media, at the following densities, in a 96-well tissue culture plate (Falcon 3075): […] and A375P, 5,000 cells/well; all other cell lines, 10,000 cells/well. The next day, compounds were diluted in RPMI containing 100 micrograms/ml gentamicin, at twice the final required concentration, from 10 mM stock solutions in dimethyl sulphoxide (DMSO). One hundred microliters per well of these dilutions were added to the 100 microliters of media currently on the cell plates. RPMI containing 0.6% DMSO was added to control wells. […] Optical density at 620 nm was measured on a microplate reader. Percent inhibition of cell growth was calculated relative to vehicle treated control wells. […]

[2] = test system: human colon carcinoma (Colo 201) cells; assay: XTT 72 hr growth inhibition (Assay 3), Colo201; format: cell-based; conditions: Colorectal cancer, B-Raf ND, Ras ND, Assay 3, 72 hr
Experimental: XTT 72 hr Growth Inhibition Protocol for Mammalian Cultured Cells (Assay 3)
Human diploid foreskin fibroblasts (HFF) or human colon carcinoma (Colo 201) cells were grown in Dulbecco's modified Eagle's medium (DMEM) (Invitrogen/Life Technologies) containing 10% fetal bovine serum (FBS) and the antibiotics penicillin (100 Units/ml) and streotomycin (100 micrograms/ml) (Invitrogen/Life Technologies). Growth was at 37° C. in humidified 5% CO2 incubators in 75 cm^2 plastic flasks. Cells were harvested using 0.25% trypsin/1 mM ethylenediaminetetraacetic acid (EDTA), resuspended in growth medium, and counted using a hemocytometer. Flat-bottomed 96-well plates were seeded with 2×10^3 cells/well in a volume of 200 ul from trypsinized exponentially growing cultures. To “blank” wells, growth medium was added with no additions. Cells were incubated overnight to permit attachment.
Next day, medium from wells that contained cells was replaced with 180 microliters of fresh medium. Appropriate dilutions of test compounds were added to the wells from stock soloutions of compound dissolved in dimethyl sulfoxide (DMSO); final DMSO concentration in all wells was 0.2%. […] Absorbance at 450 nm was then determined using a 96-well UV plate reader (Molecular Devices). Under these conditions, absorbance of untreated control cells at 450 nm was at least 1.0 optical density unit/ml. […]

[3] = test system: colon carcinoma (Colo 205); assay: Methylene blue growth inhibition assay (Assay 2), Colo205; format: cell-based; conditions: Homo sapiens, COLO 205, 72 h; Colorectal cancer; B-Raf V599E, Ras wt; Assay 2, 3 days
Experimental: as §1, §2

human melanoma A375P = assay: Methylene blue growth inhibition assay (Assay 2), A375P; format: cell-based; conditions: 72 h, B-Raf V599E, Ras wt, Assay 2, 3 days
Experimental: as §1, §2

human melanoma SKMEL3 = assay: Methylene blue growth inhibition assay (Assay 2), SKMEL3; format: cell-based; conditions: SK-MEL3, 72 h, B-Raf V599E, Ras wt, Assay 2, 3 days
Experimental: as §1, §2

human melanoma SKMEL2 = assay: Methylene blue growth inhibition assay (Assay 2), SKMEL2; format: cell-based; conditions: SK-MEL-2, 72 h, B-Raf wt, [Q61R]N-Ras, Assay 2, 3 days
Experimental: as §1, §2

B-Raf, sequence (P15056 whole entry): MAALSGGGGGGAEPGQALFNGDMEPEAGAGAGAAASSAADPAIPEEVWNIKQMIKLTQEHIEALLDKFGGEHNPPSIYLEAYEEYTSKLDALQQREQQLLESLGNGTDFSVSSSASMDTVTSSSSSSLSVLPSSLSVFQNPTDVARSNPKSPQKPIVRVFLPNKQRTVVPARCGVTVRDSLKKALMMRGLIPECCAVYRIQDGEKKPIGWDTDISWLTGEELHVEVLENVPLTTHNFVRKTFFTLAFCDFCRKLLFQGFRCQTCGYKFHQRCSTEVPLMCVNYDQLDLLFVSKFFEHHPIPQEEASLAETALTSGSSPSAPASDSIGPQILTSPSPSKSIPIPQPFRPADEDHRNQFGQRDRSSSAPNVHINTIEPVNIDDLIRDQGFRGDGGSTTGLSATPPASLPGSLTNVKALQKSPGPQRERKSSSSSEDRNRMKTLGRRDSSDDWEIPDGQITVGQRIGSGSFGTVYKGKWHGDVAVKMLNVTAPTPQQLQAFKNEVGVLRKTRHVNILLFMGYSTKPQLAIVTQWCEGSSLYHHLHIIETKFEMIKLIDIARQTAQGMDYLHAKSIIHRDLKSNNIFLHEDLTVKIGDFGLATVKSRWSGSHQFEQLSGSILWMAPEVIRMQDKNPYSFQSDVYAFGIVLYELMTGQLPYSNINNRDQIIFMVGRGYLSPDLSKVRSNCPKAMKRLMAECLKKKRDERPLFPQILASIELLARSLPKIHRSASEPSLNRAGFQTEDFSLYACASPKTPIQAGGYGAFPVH

## O=C(c1cc(-c2ccc3c(c2)CCC3=NO)c(-c2ccncc2)o1)N1CCC(N2CCCC2)CC1 [Example 20, 5-{2-Pyridin-4-yl-5-[1-(4-pyrrolidin-1-yl-piperidin-1-yl)-methanoyl}-furan-3-yl}-indan-1-one oxime]
B-Raf
  Kd: 0.4 nM
[1]
  IC50: > 30000 nM
[2]
  IC50: 800 nM
[3]
  IC50: 320 nM
Human melanoma A375P
  IC50: 310 nM
Human melanoma SKMEL3
  IC50: 460 nM
Human melanoma SKMEL2
  IC50: 1900 nM
